Test: Pharmacokinetics, RRx-001-GSH in plasma as surrogate for drug exposure
Assay type: in vivo
Method: RRx-001 reacted nonenzymatically and covalently with reduced glutathione (GSH), and with the β93Cys residue of hemoglobin, forming RRx-001-GSH and RRx-001-hemoglobin metabolites, respectively. Given the rapid conversion of the RRx-001 parent molecule to GSH and hemoglobin conjugates, RRx-001-GSH, being the predominant measurable metabolite in the plasma, was chosen as a surrogate for drug exposure. Terminal half-life of RRx-001-GSH was calculated as approximately 30 minutes.

**Q.** Which “area under the plasma concentration-time curve and maximum plasma concentration, dose proportionality” value (doses up to 55 mg/m^2 in phase 1) does the source give for NC(CCC(=O)NC(CSCC(=O)N1CC([N+](=O)[O-])([N+](=O)[O-])C1)C(=O)NCC(=O)O)C(=O)O (centres unmarked) [RRx-001-GSH] here?
**A.** mostly dosed proportional

**Q.** What about the “Terminal half-life of RRx-001-GSH” value (plasma) of the same compound?
**A.** approximately 30 minutes
